Measurements as given in US20050245399A1, “Pyrazole derivatives as herbicidal compositions containing them” (ISHIHARA SANGYO KAISHA, LTD., priority 2004, published 2005).

What was measured:
Type in all cases: in vivo
[1] = test system: soybean (Glycine max Merr.): GLXMA; assay: Test Example 1 pre-emergence herbicidal activity, GLXMA; conditions: visually observed 20th to 23rd day after application
From the text: (§1) Upland field soil was put into a 1/170,000 ha pot, and seeds of various plants {1. barnyardgrass (Echinochloa crus-galli L.): ECHCG, 2. crabgrass (Digitaria sanguinalis L.): DIGSA, 3. green foxtail (Setaria viridis L.): SETVI, 4. redroot pigweed (Amaranthus retroflexus L.): AMARE, 5. prickly sida (Sida spinosa L.): SEDSP, 6. velvetleaf (Abutilon theophrasti): ABUTH, 7. common cocklebur (Xanthium strumarium L.): XANST, 8. rice (Oryza sativa L.): ORYSA, 9. wheat (Triticum aestivum L.): TRZAX, 10. corn (Zea mays L.): ZEAMX, 11. soybean (Glycine max Merr.): GLXMA} were sown. Then, one day after the sowing, a wettable powder or emulsifiable concentrate having the compound of the present invention formulated in accordance with a usual formulation method, was weighed so that the active ingredient would be a predetermined amount and diluted with water in an amount of 500 L/ha. The herbicide adjusted was applied by a small size sprayer for preemergence treatment. On the 20th to 23rd day after the application of the herbicide, the growth of the respective plants was visually observed, and the herbicidal effects were evaluated by growth controlling degrees (%) ranging from 0 (equivalent to the untreated control) to 100 (complete kill), whereby the results shown in Table 4, were obtained. Compound Nos. in Table 4 correspond to Compound Nos. in Table 1 and 2 given hereinbefore.

[2] = test system: wheat (Triticum aestivum L.), TRZAX; assay: Test Example 2 post-emergence (foliage treatment) herbicidal activity, TRZAX; conditions: 63 g a.i./ha
From the text: (§2) Upland field soil was put into a 1/170,000 ha pot, and seeds of various plants were sown. Then, when the plants reached predetermined leaf stages {1. barnyardgrass (Echinochloa crus-galli L.), ECHCG: 1.1-2.1 leaf stage, 2. crabgrass (Digitaria sanguinalis L.), DIGSA: 1.0-2.0 leaf stage, 3. green foxtail (Setaria viridis L.), SETVI: 1.0-2.2 leaf stage, 4. redroot pigweed (Amaranthus retroflexus L.), AMARE: 0.1-1.5 leaf stage, 5. prickly sida (Sida spinosa L.), SIDSP: 0.1-0.6 leaf stage, 6. velvetleaf (Abutilon theophrasti), ABUTH: 0.1-0.6 leaf stage, 7. common cocklebur (Xanthium strumarium L.), XANST: 0.1 leaf stage, 8. rice (Oryza sativa L.), ORYSA; 1.0-2 leaf stage, 9. wheat (Triticum aestivum L.), TRZAX: 2.3-3.5 leaf stage, 10. corn (Zea mays L.), ZEAMXN 2.1-2.6 leaf stage, 11. soybean (Glycine max Merr.), GLXMA: primary leaf stage}, a wettable powder or emulsifiable concentrate having the compound of the present invention formulated in accordance with a usual formulation method, was weighed so that the active ingredient would be a predetermined amount, and diluted with water in an amount of 500 L/ha. To the diluted solution, 0.1% (v/v) of an agricultural spreader was added. The herbicide adjusted was applied by a small size sprayer for foliage treatment. On the 20th to 23rd day after the application of the herbicide, the growth of the respective plants was visually observed, and the herbicidal effects were evaluated by growth controlling degrees (%) ranging from 0 (equivalent to the untreated control) to 100 (complete kill), whereby the results shown in Table 5, were obtained. Compound Nos. in Table 5 correspond to Compound Nos. in Table 1 and 2 given hereinbefore.

[3] = test system: crabgrass (Digitaria sanguinalis L.): DIGSA; assay: Test Example 1 pre-emergence herbicidal activity, DIGSA; conditions: visually observed 20th to 23rd day after application
From the text: as §1

[4] = test system: redroot pigweed (Amaranthus retroflexus L.): AMARE; assay: Test Example 1 pre-emergence herbicidal activity, AMARE; conditions: visually observed 20th to 23rd day after application
From the text: as §1

[5] = test system: barnyardgrass (Echinochloa crus-galli L.): ECHCG; assay: Test Example 1 pre-emergence herbicidal activity, ECHCG; conditions: visually observed 20th to 23rd day after application
From the text: as §1

[6] = test system: wheat (Triticum aestivum L.): TRZAX; assay: Test Example 1 pre-emergence herbicidal activity, TRZAX; conditions: visually observed 20th to 23rd day after application
From the text: as §1

[7] = test system: rice (Oryza sativa L.): ORYSA; assay: Test Example 1 pre-emergence herbicidal activity, ORYSA; conditions: visually observed 20th to 23rd day after application
From the text: as §1

[8] = test system: velvetleaf (Abutilon theophrasti): ABUTH; assay: Test Example 1 pre-emergence herbicidal activity, ABUTH; conditions: visually observed 20th to 23rd day after application
From the text: as §1

[9] = test system: corn (Zea mays L.): ZEAMX; assay: Test Example 1 pre-emergence herbicidal activity, ZEAMX; conditions: visually observed 20th to 23rd day after application
From the text: as §1

[10] = test system: corn (Zea mays L.), ZEAMX; assay: Test Example 2 post-emergence (foliage treatment) herbicidal activity, ZEAMX; conditions: 63 g a.i./ha
From the text: as §2

[11] = test system: crabgrass (Digitaria sanguinalis L.), DIGSA; assay: Test Example 2 post-emergence (foliage treatment) herbicidal activity, DIGSA; conditions: 63 g a.i./ha
From the text: as §2

[12] = test system: rice (Oryza sativa L.), ORYSA; assay: Test Example 2 post-emergence (foliage treatment) herbicidal activity, ORYSA; conditions: 63 g a.i./ha
From the text: as §2

[13] = test system: soybean (Glycine max Merr.), GLXMA; assay: Test Example 2 post-emergence (foliage treatment) herbicidal activity, GLXMA; conditions: 63 g a.i./ha
From the text: as §2

[14] = test system: green foxtail (Setaria viridis L.): SETVI; assay: Test Example 1 pre-emergence herbicidal activity, SETVI; conditions: visually observed 20th to 23rd day after application
From the text: as §1

[15] = test system: velvetleaf (Abutilon theophrasti), ABUTH; assay: Test Example 2 post-emergence (foliage treatment) herbicidal activity, ABUTH; conditions: 63 g a.i./ha
From the text: as §2

[16] = test system: barnyardgrass (Echinochloa crus-galli L.), ECHCG; assay: Test Example 2 post-emergence (foliage treatment) herbicidal activity, ECHCG; conditions: 63 g a.i./ha
From the text: as §2

[17] = test system: green foxtail (Setaria viridis L.), SETVI; assay: Test Example 2 post-emergence (foliage treatment) herbicidal activity, SETVI; conditions: 63 g a.i./ha
From the text: as §2

[18] = test system: prickly sida (Sida spinosa L.), SIDSP; assay: Test Example 2 post-emergence (foliage treatment) herbicidal activity, SIDSP; conditions: 63 g a.i./ha
From the text: as §2

[19] = test system: prickly sida (Sida spinosa L.): SEDSP; assay: Test Example 1 pre-emergence herbicidal activity, SIDSP; conditions: visually observed 20th to 23rd day after application
From the text: as §1

COCCC(=O)Nc1c(OC)c(Cl)cc(F)c1-c1nn(C)c(OC(F)F)c1Cl [Compound 1-40]
Pre-emergence Herbicidal Activity GLXMA (growth controlling degree) ([1]; Rate 63 g a.i./ha): 30% | growth controlling degree, TRZAX [2]: 50% | Pre-emergence Herbicidal Activity DIGSP (growth controlling degree) ([3]; Rate 63 g a.i./ha): 100% | Pre-emergence Herbicidal Activity AMARE (growth controlling degree) ([4]; Rate 63 g a.i./ha): 100% | Pre-emergence Herbicidal Activity ECHCG (growth controlling degree) ([5]; Rate 63 g a.i./ha): 100% | Pre-emergence Herbicidal Activity TRZAX (growth controlling degree) ([6]; Rate 63 g a.i./ha): 60% | Pre-emergence Herbicidal Activity ORYSA (growth controlling degree) ([7]; Rate 63 g a.i./ha): 80% | Pre-emergence Herbicidal Activity ABUTH (growth controlling degree) ([8]; Rate 63 g a.i./ha): 100% | Pre-emergence Herbicidal Activity ZEAMX (growth controlling degree) ([9]; Rate 63 g a.i./ha): 60% | growth controlling degree, ZEAMX [10]: 70% | growth controlling degree, DIGSP [11]: 80% | growth controlling degree, ORYSA [12]: 100% | growth controlling degree, GLXMA [13]: 95% | Pre-emergence Herbicidal Activity SETVI (growth controlling degree) ([14]; Rate 63 g a.i./ha): 100% | growth controlling degree, ABUTH [15]: 100% | growth controlling degree, ECHCO [16]: 100% | growth controlling degree, SETVI [17]: 100% | growth controlling degree, SIDSP [18]: 100% | Pre-emergence Herbicidal Activity SIDSP (growth controlling degree) ([19]; Rate 63 g a.i./ha): 100%

COc1c(Cl)cc(F)c(-c2nn(C)c(OC(F)F)c2Cl)c1NC(=O)C(C)c1ccccc1 (stereo not drawn) [Compound 1-41]
Pre-emergence Herbicidal Activity GLXMA (growth controlling degree) ([1]; Rate 10 g a.i./ha): 0% | growth controlling degree, TRZAX [2]: 30% | Pre-emergence Herbicidal Activity DIGSP (growth controlling degree) ([3]; Rate 10 g a.i./ha): 50% | Pre-emergence Herbicidal Activity AMARE (growth controlling degree) ([4]; Rate 10 g a.i./ha): 50% | Pre-emergence Herbicidal Activity ECHCG (growth controlling degree) ([5]; Rate 10 g a.i./ha): 30% | Pre-emergence Herbicidal Activity TRZAX (growth controlling degree) ([6]; Rate 10 g a.i./ha): 0% | Pre-emergence Herbicidal Activity ORYSA (growth controlling degree) ([7]; Rate 10 g a.i./ha): 0% | Pre-emergence Herbicidal Activity ABUTH (growth controlling degree) ([8]; Rate 10 g a.i./ha): 0% | Pre-emergence Herbicidal Activity ZEAMX (growth controlling degree) ([9]; Rate 10 g a.i./ha): 0% | growth controlling degree, ZEAMX [10]: 0% | growth controlling degree, DIGSP [11]: 30% | growth controlling degree, ORYSA [12]: 30% | growth controlling degree, GLXMA [13]: 40% | Pre-emergence Herbicidal Activity SETVI (growth controlling degree) ([14]; Rate 10 g a.i./ha): 100% | growth controlling degree, ABUTH [15]: 100% | growth controlling degree, ECHCO [16]: 20% | growth controlling degree, SETVI [17]: 40% | growth controlling degree, SIDSP [18]: 100% | Pre-emergence Herbicidal Activity SIDSP (growth controlling degree) ([19]; Rate 10 g a.i./ha): 40%

COc1c(Cl)cc(F)c(-c2nn(C)c(OC(F)F)c2Cl)c1NCCOc1ccccc1 [Compound 1-77]
Pre-emergence Herbicidal Activity GLXMA (growth controlling degree) ([1]; Rate 63 g a.i./ha): 0% | growth controlling degree, TRZAX [2]: 30% | Pre-emergence Herbicidal Activity DIGSP (growth controlling degree) ([3]; Rate 63 g a.i./ha): 0% | Pre-emergence Herbicidal Activity ECHCG (growth controlling degree) ([5]; Rate 63 g a.i./ha): 0% | Pre-emergence Herbicidal Activity TRZAX (growth controlling degree) ([6]; Rate 63 g a.i./ha): 0% | Pre-emergence Herbicidal Activity ORYSA (growth controlling degree) ([7]; Rate 63 g a.i./ha): 0% | Pre-emergence Herbicidal Activity ABUTH (growth controlling degree) ([8]; Rate 63 g a.i./ha): 0% | Pre-emergence Herbicidal Activity ZEAMX (growth controlling degree) ([9]; Rate 63 g a.i./ha): 0% | growth controlling degree, ZEAMX [10]: 60% | growth controlling degree, DIGSP [11]: 60% | growth controlling degree, ORYSA [12]: 40% | growth controlling degree, GLXMA [13]: 60% | Pre-emergence Herbicidal Activity SETVI (growth controlling degree) ([14]; Rate 63 g a.i./ha): 10% | growth controlling degree, ABUTH [15]: 100% | growth controlling degree, ECHCO [16]: 70% | growth controlling degree, SETVI [17]: 95% | growth controlling degree, SIDSP [18]: 100% | Pre-emergence Herbicidal Activity SIDSP (growth controlling degree) ([19]; Rate 63 g a.i./ha): 0%

COc1c(Cl)cc(F)c(-c2nn(C)c(OC(F)F)c2Cl)c1NC(=O)CCc1cccc(F)c1 [Compound 1-266]
Pre-emergence Herbicidal Activity GLXMA (growth controlling degree) ([1]; Rate 63 g a.i./ha): 0% | Pre-emergence Herbicidal Activity DIGSP (growth controlling degree) ([3]; Rate 63 g a.i./ha): 100% | Pre-emergence Herbicidal Activity AMARE (growth controlling degree) ([4]; Rate 63 g a.i./ha): 100% | Pre-emergence Herbicidal Activity ECHCG (growth controlling degree) ([5]; Rate 63 g a.i./ha): 60% | Pre-emergence Herbicidal Activity TRZAX (growth controlling degree) ([6]; Rate 63 g a.i./ha): 40% | Pre-emergence Herbicidal Activity ORYSA (growth controlling degree) ([7]; Rate 63 g a.i./ha): 10% | Pre-emergence Herbicidal Activity ABUTH (growth controlling degree) ([8]; Rate 63 g a.i./ha): 50% | Pre-emergence Herbicidal Activity ZEAMX (growth controlling degree) ([9]; Rate 63 g a.i./ha): 0% | Pre-emergence Herbicidal Activity SETVI (growth controlling degree) ([14]; Rate 63 g a.i./ha): 80% | Pre-emergence Herbicidal Activity SIDSP (growth controlling degree) ([19]; Rate 63 g a.i./ha): 100%
